Measurements reported in PubChem BioAssay AID1918995 (Molecular Pharmacology Branch, DTP, NCI, 2023).

Tested on: 324938-238-R-J1-PDC complex spheroid growth, % test/control
Experiment: Anticancer human tumor 324938-238-R-J1-PDC patient-derived bladder carcinoma cell line growth inhibition [AhR]
Settings: for IC50: curve of first compound; for viability, T/C: stronger effect = lower value
Method in brief: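 Complex tumor spheroids co-cultured with HUVEC and human MSC stroma; AhR antagonists tested in combination with standard-of-care and investigational agents. Top concentration at or near clinical Cmax (else 10 microM), half-log dilutions; growth expressed as percent test/control.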

[1] = second compound 0.1 µM, first compound 0.00949 µM
[2] = second compound 0.1 µM, first compound 0.03 µM
[3] = second compound 0.1 µM, first compound 0.0949 µM
[4] = second compound 0.1 µM, first compound 0.3 µM
[5] = second compound 0.316 µM, first compound 0.00949 µM
[6] = second compound 0.316 µM, first compound 0.03 µM
[7] = second compound 0.316 µM, first compound 0.0949 µM
[8] = second compound 0.316 µM, first compound 0.3 µM
[9] = second compound 1 µM, first compound 0.00949 µM
[10] = second compound 1 µM, first compound 0.03 µM
[11] = second compound 1 µM, first compound 0.0949 µM
[12] = second compound 1 µM, first compound 0.3 µM
[13] = second compound 3.16 µM, first compound 0.00949 µM
[14] = second compound 3.16 µM, first compound 0.03 µM
[15] = second compound 3.16 µM, first compound 0.0949 µM
[16] = second compound 3.16 µM, first compound 0.3 µM
[17] = second compound 10 µM, first compound 0.00949 µM
[18] = second compound 10 µM, first compound 0.03 µM
[19] = second compound 10 µM, first compound 0.0949 µM
[20] = second compound 10 µM, first compound 0.3 µM
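Also: spheroids exposed to agents for seven days before viability read.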

CC1COCCN1c1cc(C2(S(C)(=N)=O)CC2)nc(-c2ccnc3[nH]ccc23)n1 (stereo not given) + Cc1ccccc1N=Nc1ccc(NC(=O)c2ccnn2C)c(C)c1
IC50 (second compound 0.1 µM): 5950 nM
IC50 (second compound 0.316 µM): 4660 nM
IC50 (second compound 1 µM): 3880 nM
IC50 (second compound 3.16 µM): 4600 nM
IC50 (second compound 10 µM): 5120 nM
viability, T/C (second compound 0.1 µM, first compound 0.0316 µM): 97.8%
viability, T/C (second compound 0.1 µM, first compound 0.1 µM): 96.8%
viability, T/C (second compound 0.1 µM, first compound 0.316 µM): 98.3%
viability, T/C (second compound 0.1 µM, first compound 1 µM): 90.4%
viability, T/C (second compound 0.1 µM, first compound 3.16 µM): 68.5%
viability, T/C (second compound 0.1 µM, first compound 10 µM): 34.9%
viability, T/C (second compound 0.316 µM, first compound 0.0316 µM): 84.1%
viability, T/C (second compound 0.316 µM, first compound 0.1 µM): 89.5%
viability, T/C (second compound 0.316 µM, first compound 0.316 µM): 90.3%
viability, T/C (second compound 0.316 µM, first compound 1 µM): 80.2%
viability, T/C (second compound 0.316 µM, first compound 3.16 µM): 59%
viability, T/C (second compound 0.316 µM, first compound 10 µM): 32.8%
viability, T/C (second compound 1 µM, first compound 0.0316 µM): 91.3%
viability, T/C (second compound 1 µM, first compound 0.1 µM): 83.5%
viability, T/C (second compound 1 µM, first compound 0.316 µM): 95%
viability, T/C (second compound 1 µM, first compound 1 µM): 84.6%
viability, T/C (second compound 1 µM, first compound 3.16 µM): 53.4%
viability, T/C (second compound 1 µM, first compound 10 µM): 34.8%
viability, T/C (second compound 3.16 µM, first compound 0.0316 µM): 72.7%
viability, T/C (second compound 3.16 µM, first compound 0.1 µM): 78.2%
viability, T/C (second compound 3.16 µM, first compound 0.316 µM): 76.5%
viability, T/C (second compound 3.16 µM, first compound 1 µM): 68.6%
viability, T/C (second compound 3.16 µM, first compound 3.16 µM): 57.3%
viability, T/C (second compound 3.16 µM, first compound 10 µM): 33.2%
viability, T/C (second compound 10 µM, first compound 0.0316 µM): 73.8%
viability, T/C (second compound 10 µM, first compound 0.1 µM): 69.3%
viability, T/C (second compound 10 µM, first compound 0.316 µM): 68.7%
viability, T/C (second compound 10 µM, first compound 1 µM): 66%
viability, T/C (second compound 10 µM, first compound 3.16 µM): 56.5%
viability, T/C (second compound 10 µM, first compound 10 µM): 40.8%

Nc1ncn(C2CC(O)C(CO)S2)c(=O)n1 (stereo not given) + Cc1ccccc1N=Nc1ccc(NC(=O)c2ccnn2C)c(C)c1
IC50 (second compound 0.1 µM): > 300 nM
IC50 (second compound 0.316 µM): > 300 nM
IC50 (second compound 1 µM): > 300 nM
IC50 (second compound 3.16 µM): 290 nM
IC50 (second compound 10 µM): 296 nM
viability, T/C (second compound 0.1 µM, first compound 0.000949 µM): 83.2%
viability, T/C (second compound 0.1 µM, first compound 0.003 µM): 95.4%
viability, T/C [1]: 91.7%
viability, T/C [2]: 78.5%
viability, T/C [3]: 72.6%
viability, T/C [4]: 53.4%
viability, T/C (second compound 0.316 µM, first compound 0.000949 µM): 81.7%
viability, T/C (second compound 0.316 µM, first compound 0.003 µM): 90.2%
viability, T/C [5]: 98.3%
viability, T/C [6]: 82.6%
viability, T/C [7]: 71.8%
viability, T/C [8]: 54.3%
viability, T/C (second compound 1 µM, first compound 0.000949 µM): 97.1%
viability, T/C (second compound 1 µM, first compound 0.003 µM): 87.4%
viability, T/C [9]: 78.7%
viability, T/C [10]: 78.7%
viability, T/C [11]: 65%
viability, T/C [12]: 55.4%
viability, T/C (second compound 3.16 µM, first compound 0.000949 µM): 83.7%
viability, T/C (second compound 3.16 µM, first compound 0.003 µM): 85.4%
viability, T/C [13]: 66%
viability, T/C [14]: 70.4%
viability, T/C [15]: 60.9%
viability, T/C [16]: 48.5%
viability, T/C (second compound 10 µM, first compound 0.000949 µM): 81.6%
viability, T/C (second compound 10 µM, first compound 0.003 µM): 71.4%
viability, T/C [17]: 70.5%
viability, T/C [18]: 68.8%
viability, T/C [19]: 65.8%
viability, T/C [20]: 48.7%

O=C(C=Cn1cnc(-c2cc(C(F)(F)F)cc(C(F)(F)F)c2)n1)NNc1cnccn1 + Cc1ccccc1N=Nc1ccc(NC(=O)c2ccnn2C)c(C)c1
IC50 (second compound 0.1 µM): 173 nM
IC50 (second compound 0.316 µM): 171 nM
IC50 (second compound 1 µM): 178 nM
IC50 (second compound 3.16 µM): 144 nM
IC50 (second compound 10 µM): 172 nM
viability, T/C [1]: 91.4%
viability, T/C [2]: 95.5%
viability, T/C [3]: 62.7%
viability, T/C [4]: 35.8%
viability, T/C (second compound 0.1 µM, first compound 0.949 µM): 19.1%
viability, T/C (second compound 0.1 µM, first compound 3 µM): 8.4%
viability, T/C [5]: 90.4%
viability, T/C [6]: 90.6%
viability, T/C [7]: 67.8%
viability, T/C [8]: 32.1%
viability, T/C (second compound 0.316 µM, first compound 0.949 µM): 19.9%
viability, T/C (second compound 0.316 µM, first compound 3 µM): 11.9%
viability, T/C [9]: 86.4%
viability, T/C [10]: 79.8%
viability, T/C [11]: 65.6%
viability, T/C [12]: 37.1%
viability, T/C (second compound 1 µM, first compound 0.949 µM): 18.6%
viability, T/C (second compound 1 µM, first compound 3 µM): 10.7%
viability, T/C [13]: 84.7%
viability, T/C [14]: 72%
viability, T/C [15]: 58.2%
viability, T/C [16]: 37.5%
viability, T/C (second compound 3.16 µM, first compound 0.949 µM): 23.4%
viability, T/C (second compound 3.16 µM, first compound 3 µM): 16.3%
viability, T/C [17]: 78.4%
viability, T/C [18]: 78.7%
viability, T/C [19]: 62.5%
viability, T/C [20]: 37.2%
viability, T/C (second compound 10 µM, first compound 0.949 µM): 26.7%
viability, T/C (second compound 10 µM, first compound 3 µM): 18.6%
